According to patent US20240158446A1, “CYCLIC COMPOUND HAVING SELECTIVE INHIBITORY ACTION ON KRAS OVER HRAS AND NRAS” (CHUGAI SEIYAKU KABUSHIKI KAISHA, priority 2021, published 2024):
Where two headings read alike, the source gives them in different places. *1 amine or outer side, *2 acyl side, *3 side chain or, on linkers, in order; H or OH if unused. Where a SMILES comes first, the peptide text is derived from it. Bridges are numbered along the chain shown (N, C = ends). [ ]: non-standard residue; d: D form. The star is where a group is joined. hPhe(3,5-F2-4-CF3) = N[C@@H](CCc1cc(F)c(C(F)(F)F)c(F)c1)C(=O)O; hPhe(3-Cl-4-CF3) = N[C@@H](CCc1ccc(C(F)(F)F)c(Cl)c1)C(=O)O; X36 = Cc1ccc(C[C@@H](C(=O)[*:2])N(CCC(F)(F)F)[*:1])cc1; NPrPhe(4-CF3) = CCCN[C@@H](Cc1ccc(C(F)(F)F)cc1)C(=O)O; X13 = O=C([C@@H](N[*:1])C1CC(F)(F)C1)[*:2]; Pip(4,4-F2) = O=C(O)[C@@H]1CC(F)(F)CCN1; NMeGly(cPent) = CN[C@H](C(=O)O)C1CCCC1; Pro(4,4-F2) = O=C(O)[C@@H]1CC(F)(F)CN1; αMeCha = C[C@](N)(CC1CCCCC1)C(=O)O; NMeD = CN[C@@H](CC(=O)O)C(=O)O; NMeL = CN[C@@H](CC(C)C)C(=O)O; Morpholide = C1CN(*)CCO1; NMeA = CN[C@@H](C)C(=O)O; Ac5c = NC1(C(=O)O)CCCC1; Aze = O=C(O)[C@@H]1CCN1; Ac4c = NC1(C(=O)O)CCC1; NEtG = CCNCC(=O)O; Sar = CNCC(=O)O

Assays:
[1] = target: GDP-bound HRAS wild-type protein (Homo sapiens, UniProt P01112); test: Binding to HRAS by surface plasmon resonance (SPR), Single Cycle Kinetics; settings: SPR, GDP-bound HRAS wild-type protein vs GDP-bound KRAS wild-type protein
[2] = target: GDP-bound KRAS wild-type protein (Homo sapiens, UniProt P01116); test: Binding to KRAS by surface plasmon resonance (SPR), Single Cycle Kinetics; settings: GDP-bound KRAS wild-type protein, read-out: KRAS KD
[3] = target: GDP-bound NRAS wild-type protein (Homo sapiens, UniProt P01111); test: Binding to NRAS by surface plasmon resonance (SPR), Single Cycle Kinetics; settings: SPR, GDP-bound NRAS wild-type protein vs GDP-bound KRAS wild-type protein
[4] = SPR Single Cycle Kinetics, 1:1 binding model

GDP-bound HRAS wild-type protein, sequence (P01112 whole entry): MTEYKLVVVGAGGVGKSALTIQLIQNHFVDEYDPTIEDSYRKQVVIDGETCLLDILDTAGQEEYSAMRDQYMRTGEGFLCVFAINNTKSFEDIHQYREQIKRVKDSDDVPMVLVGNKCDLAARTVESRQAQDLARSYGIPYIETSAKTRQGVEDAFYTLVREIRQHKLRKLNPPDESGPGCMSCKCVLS
GDP-bound KRAS wild-type protein, sequence (P01116 whole entry): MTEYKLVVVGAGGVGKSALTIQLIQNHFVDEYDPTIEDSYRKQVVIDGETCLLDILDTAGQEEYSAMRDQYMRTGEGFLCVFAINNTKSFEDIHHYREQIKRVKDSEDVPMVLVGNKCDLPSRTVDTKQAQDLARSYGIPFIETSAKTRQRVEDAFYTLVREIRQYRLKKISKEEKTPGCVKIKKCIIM
GDP-bound NRAS wild-type protein, sequence (P01111 whole entry): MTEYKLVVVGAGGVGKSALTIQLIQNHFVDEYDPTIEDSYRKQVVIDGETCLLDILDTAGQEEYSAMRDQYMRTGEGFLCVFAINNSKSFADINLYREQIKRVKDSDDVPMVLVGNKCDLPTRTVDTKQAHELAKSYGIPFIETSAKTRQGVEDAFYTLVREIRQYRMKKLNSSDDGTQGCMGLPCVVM

Kd [2, 4] [nM] | SMILES | HRAS/KRAS (ratio of KD value for HRAS to KD value for KRAS) [1] | NRAS/KRAS (ratio of KD value for NRAS to KD value for KRAS) [3] | HRAS/KRAS (ratio of KD value with respect to HRAS to KD value with respect to KRAS) [1] | NRAS/KRAS (ratio of KD value with respect to NRAS to KD value with respect to KRAS) [3] | also measured
3.7 | CCCN1C(=O)CN(C)C(=O)CN(C)C(=O)[C@H]([C@@H](C)CC)NC(=O)[C@H](CC(C)C)N(C)C(=O)C[C@@H](C(=O)N(C)C)N(C)C(=O)[C@H](C2CCCC2)N(C)C(=O)[C@](C)(CC2CCCCC2)NC(=O)[C@@H]2CCCN2C(=O)[C@H](CCc2cc(F)c(C(F)(F)F)c(F)c2)NC(=O)CN(C)C(=O)[C@@H]1Cc1ccc(C(F)(F)F)cc1 [PP0739] ([NMeL]I[Sar][Sar][NPrPhe(4-CF3)][Sar][hPhe(3,5-F2-4-CF3)]P[αMeCha][NMeGly(cPent)][NMeD]-NMe2; lactam N-11) | – | – | C (A compound having a KD ratio of 0.1 or more and less than 3 is denoted as C) | B (a compound having 3 or more and less than 10 is denoted as B) | –
1.1 | CCO[C@@H]1C[C@H]2C(=O)NC3(CC(C)(C)C3)C(=O)N(C)[C@@H](C3CCCC3)C(=O)N(C)[C@H](C(=O)N3CCOCC3)CC(=O)N(C)[C@@H](CC(C)C)C(=O)N[C@@H]([C@@H](C)CC)C(=O)N(C)CC(=O)N(C)[C@H]3CCCCCN(C3=O)[C@@H](Cc3ccc(C(F)(F)F)cc3)C(=O)N(C)CC(=O)N[C@@H](CCc3cc(F)c(C(F)(F)F)c(F)c3)C(=O)N2C1 [PP0726] | – | – | B (a compound having 3 or more and less than 10 is denoted as B) | B (a compound having 3 or more and less than 10 is denoted as B) | –
0.01 | CCO[C@@H]1C[C@H]2C(=O)NC3(CCCC3)C(=O)N(C)[C@@H](C3CCCC3)C(=O)N(C)[C@H](C(=O)N(C)C)CC(=O)N(C)[C@@H](C)C(=O)N[C@@H]([C@@H](C)CC)C(=O)N(C)CC(=O)N(C)[C@H]3CCCCN(C3=O)[C@@H](Cc3ccc(C(F)(F)F)cc3)C(=O)N(C)CC(=O)N[C@@H](CCc3cc(F)c(C(F)(F)F)c(F)c3)C(=O)N2C1 [PP0586] | – | – | B (a compound having 3 or more and less than 10 is denoted as B) | C (A compound having a KD ratio of 0.1 or more and less than 3 is denoted as C) | –
0.59 | CCO[C@@H]1C[C@H]2C(=O)NC3(CCC3)C(=O)N(C)[C@@H](C3CCCC3)C(=O)N(C)[C@H](C(=O)N3CCOCC3)CC(=O)N(C)[C@@H](CC(C)C)C(=O)N[C@@H]([C@@H](C)CC)C(=O)N(C)CC(=O)N(C)[C@H]3CCCCCN(C3=O)[C@@H](Cc3ccc(C(F)(F)F)cc3)C(=O)N(C)CC(=O)N[C@@H](CCc3cc(F)c(C(F)(F)F)c(F)c3)C(=O)N2C1 [PP0467] | – | – | B (a compound having 3 or more and less than 10 is denoted as B) | B (a compound having 3 or more and less than 10 is denoted as B) | –
0.08 | CCCN1C(=O)CN(C)C(=O)CN(C)C(=O)[C@H](C2CC(F)(F)C2)NC(=O)[C@H](CC(C)C)N(C)C(=O)C[C@@H](C(=O)N(C)C)N(C)C(=O)[C@H](C2CCCC2)N(C)C(=O)C2(CCCC2)NC(=O)[C@@H]2CCCN2C(=O)[C@H](CCc2cc(F)c(C(F)(F)F)c(F)c2)NC(=O)CN(C)C(=O)[C@@H]1Cc1ccc(C(F)(F)F)cc1 [PP0748] ([NMeL][X13][Sar][Sar][NPrPhe(4-CF3)][Sar][hPhe(3,5-F2-4-CF3)]P[Ac5c][NMeGly(cPent)][NMeD]-NMe2; lactam N-11) | – | – | B (a compound having 3 or more and less than 10 is denoted as B) | B (a compound having 3 or more and less than 10 is denoted as B) | –

The remaining lines, values behind:

SMILES | Kd [2, 4] [nM] | HRAS/KRAS (ratio of KD value for HRAS to KD value for KRAS) [1] | NRAS/KRAS (ratio of KD value for NRAS to KD value for KRAS) [3] | HRAS/KRAS (ratio of KD value with respect to HRAS to KD value with respect to KRAS) [1] | NRAS/KRAS (ratio of KD value with respect to NRAS to KD value with respect to KRAS) [3] | also measured
CCCN1C(=O)[C@@H]2CCN2C(=O)CN(CC)C(=O)[C@H]([C@@H](C)CC)NC(=O)[C@H](CC(C)C)N(C)C(=O)C[C@@H](C(=O)N2CCOCC2)N(C)C(=O)[C@H](C2CCCC2)N(C)C(=O)C2(CCCC2)NC(=O)[C@@H]2CCCN2C(=O)[C@H](CCc2ccc(C(F)(F)F)c(Cl)c2)NC(=O)CN(C)C(=O)[C@@H]1Cc1ccc(C(F)(F)F)cc1 [PP0259] ([NMeL]I[NEtG][Aze][NPrPhe(4-CF3)][Sar][hPhe(3-Cl-4-CF3)]P[Ac5c][NMeGly(cPent)][NMeD]-Morpholide; lactam N-11) | 0.42 | B (a compound having 3 or more and less than 10 is denoted as B) | C (A compound having a KD ratio of 0.1 or more and less than 3 is denoted as C) | – | – | –
CCC[C@H]1C(=O)N[C@@H]([C@@H](C)CC)C(=O)N(C)CC(=O)N(C)[C@H]2C/C=C\CCN(C2=O)[C@@H](Cc2ccc(C)cc2)C(=O)N(C)CC(=O)N[C@@H](CCc2cc(F)c(C(F)(F)F)c(F)c2)C(=O)N2CC3(CC3)C[C@H]2C(=O)NC2(CC(C)(C)C2)C(=O)N(C)[C@@H](CC(F)(F)F)C(=O)N(C)[C@H](C(=O)N(C)C)CC(=O)N1C [PP3003] | – | A (a compound having 10 or more and less than 20 is denoted as A) | AA (a compound having 20 or more is denoted as AA) | – | – | Kd ([2]; SPR, Single Cycle Kinetics): 0.72 nM
CCCN1C(=O)CN(C)C(=O)CN(C)C(=O)[C@H]([C@@H](C)CC)NC(=O)[C@H](CC(C)C)N(C)C(=O)C[C@@H](C(=O)N(C)C)NC(=O)[C@H](C2CCCC2)N(C)C(=O)C2(CCC2)NC(=O)[C@@H]2CCCN2C(=O)[C@H](CCc2ccc(C(F)(F)F)c(Cl)c2)NC(=O)CN(C)C(=O)[C@@H]1Cc1ccc(C(F)(F)F)cc1 [PP0356] ([NMeL]I[Sar][Sar][NPrPhe(4-CF3)][Sar][hPhe(3-Cl-4-CF3)]P[Ac4c][NMeGly(cPent)]D-NMe2; lactam N-11) | 0.49 | B (a compound having 3 or more and less than 10 is denoted as B) | B (a compound having 3 or more and less than 10 is denoted as B) | – | – | –
CCCN1C(=O)[C@@H]2CCN2C(=O)[C@H](C)N(C)C(=O)[C@H]([C@@H](C)CC)NC(=O)[C@H](CC(C)C)N(C)C(=O)C[C@@H](C(=O)N2CCOCC2)N(C)C(=O)[C@H](C2CCCC2)N(C)C(=O)C2(CCCC2)NC(=O)[C@@H]2CC(F)(F)CCN2C(=O)[C@H](CCc2ccc(C(F)(F)F)c(Cl)c2)NC(=O)CN(C)C(=O)[C@@H]1Cc1ccc(C(F)(F)F)cc1 [PP0285] ([NMeL]I[NMeA][Aze][NPrPhe(4-CF3)][Sar][hPhe(3-Cl-4-CF3)][Pip(4,4-F2)][Ac5c][NMeGly(cPent)][NMeD]-Morpholide; lactam N-11) | 0.75 | B (a compound having 3 or more and less than 10 is denoted as B) | C (A compound having a KD ratio of 0.1 or more and less than 3 is denoted as C) | – | – | –
CCCN1C(=O)CN(C)C(=O)[C@@H]2CCN2C(=O)[C@H]([C@@H](C)CC)NC(=O)[C@H](CC(C)C)N(C)C(=O)C[C@@H](C(=O)N2CCOCC2)N(C)C(=O)[C@H](C2CCCC2)N(C)C(=O)C2(CCCC2)NC(=O)[C@@H]2CC(F)(F)CN2C(=O)[C@H](CCc2ccc(C(F)(F)F)c(Cl)c2)NC(=O)CN(C)C(=O)[C@@H]1Cc1ccc(C(F)(F)F)cc1 [PP0403] ([NMeL]I[Aze][Sar][NPrPhe(4-CF3)][Sar][hPhe(3-Cl-4-CF3)][Pro(4,4-F2)][Ac5c][NMeGly(cPent)][NMeD]-Morpholide; lactam N-11) | 0.83 | B (a compound having 3 or more and less than 10 is denoted as B) | B (a compound having 3 or more and less than 10 is denoted as B) | – | – | –
CC[C@H](C)[C@@H]1NC(=O)[C@H](CC(C)C)N(C)C(=O)C[C@@H](C(=O)N2CCOCC2)N(C)C(=O)[C@H](C2CCCC2)N(C)C(=O)C2(CCCC2)NC(=O)[C@@H]2CCCN2C(=O)[C@H](CCc2ccc(C(F)(F)F)c(Cl)c2)NC(=O)CN(C)C(=O)[C@H](Cc2ccc(C)cc2)N(CCC(F)(F)F)C(=O)[C@@H]2CCN2C(=O)[C@H](C)N(C)C1=O [PP0091] ([NMeL]I[NMeA][Aze][X36][Sar][hPhe(3-Cl-4-CF3)]P[Ac5c][NMeGly(cPent)][NMeD]-Morpholide; lactam N-11) | 0.23 | B (a compound having 3 or more and less than 10 is denoted as B) | C (A compound having a KD ratio of 0.1 or more and less than 3 is denoted as C) | – | – | –
CCO[C@@H]1C[C@H]2C(=O)NC3(CCC3)C(=O)N(C)[C@@H](C3CCCC3)C(=O)N(CC)[C@H](C(=O)N3CCOCC3)CC(=O)N(C)[C@@H](CO)C(=O)N[C@@H]([C@@H](C)CC)C(=O)N(C)CC(=O)N(C)[C@H]3CCCCCN(C3=O)[C@@H](Cc3ccc(C(F)(F)F)cc3)C(=O)N(C)CC(=O)N[C@@H](CCc3cc(F)c(C(F)(F)F)c(F)c3)C(=O)N2C1 [PP0945] | – | A (a compound having 10 or more and less than 20 is denoted as A) | B (a compound having 3 or more and less than 10 is denoted as B) | – | – | Kd ([2]; SPR, Single Cycle Kinetics): 3.7 nM
CCO[C@@H]1C[C@H]2C(=O)NC3(CC(C)(C)C3)C(=O)N(C)[C@@H](C3CCCC3)C(=O)N(C)[C@H](C(=O)N(C)C)CC(=O)N(C)[C@@H](CC)C(=O)N[C@@H]([C@@H](C)CC)C(=O)N(C)CC(=O)N(C)[C@H]3C/C=C\CCN(C3=O)[C@@H](Cc3ccc(C(F)(F)F)cc3)C(=O)N(C)CC(=O)N[C@@H](CCc3ccc(C(F)(F)F)c(OC)c3)C(=O)N2C1 [PP1559] | – | – | – | – | – | HRAS/KRAS (ratio of KD value for HRAS to KD value for KRAS) ([1]; KD ratio class): A (a compound having 10 or more and less than 20 is denoted as A); Kd ([2]; SPR, Single Cycle Kinetics, 1:1 binding model): 0.047 nM; NRAS/KRAS (ratio of KD value for NRAS to KD value for KRAS) ([3]; KD ratio class): A (a compound having 10 or more and less than 20 is denoted as A)
